This is an account of results in patent publication US4902712A, “Fluoroalkane derivatives” (Imperial Chemical Industries plc, priority 1985, dated 1990).

For experiment [1], the system named is TXA2. Nature of the experiment: TXA2 antagonist properties (general statement, standard tests). The settings on record: in words. From the text:
(§1) As stated earlier, the compound of formula I is an antagonist of one or more of the actions of TXA2, for example certain of its actions on blood platelets, the vasculature and/or the lung.

Experiment [2] addresses T1, U46619 stimulated platelet aggregation (Homo sapiens, UniProt P21731).
T1 construct: aggregating human, citrated, platelet-rich plasma; endogenous in cells; host or cells: human platelets in citrated platelet-rich plasma
T1 sequence (P21731 1-343): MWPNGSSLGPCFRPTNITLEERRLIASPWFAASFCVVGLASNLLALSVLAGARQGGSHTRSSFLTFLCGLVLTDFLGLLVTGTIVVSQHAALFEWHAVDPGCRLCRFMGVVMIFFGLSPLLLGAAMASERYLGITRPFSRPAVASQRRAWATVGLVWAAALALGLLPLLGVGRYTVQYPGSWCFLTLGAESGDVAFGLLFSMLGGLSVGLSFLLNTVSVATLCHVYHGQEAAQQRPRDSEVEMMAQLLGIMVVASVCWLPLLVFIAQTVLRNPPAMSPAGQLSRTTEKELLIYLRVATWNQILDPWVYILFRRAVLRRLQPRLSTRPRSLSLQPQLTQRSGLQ
The experiment in a line: Test (b): blood platelet aggregation test (Born), human citrated platelet-rich plasma. The conditions noted are these: averaged over several concentrations. The format is cell-based. The text has this: (b) a blood platelet aggregation test based on that described by Born (Nature, 1962, 194, 927-929) and involving:
(i) aggregating human, citrated, platelet-rich plasma by addition of the TXA2 mimetic agent U46619 so that a dose-response curve is generated;
(ii) generating a dose-response curve for U46619 stimulated platelet aggregation in the presence of increasing amounts of test compound (generally in the range 10^-5 M to 10^-10 M); and
(iii) calculating a KB value indicating potency of TXA2 antagonism for the test compound, averaged over several concentrations, from the calculated 50% response value for U46619 aggregation in the presence and absence of test compound; and […]

Experiment [3] concerns U46619 induced hypertension. Nature of the experiment: Test (d): U46619 induced hypertension in anaesthetised rats. The format is in vivo, rat (Alderley Park strain). The settings on record: 1 hour after an oral dose of 0.05 mg/kg. The protocol: (d) Male rats (Alderley Park strain) are anaesthetised with sodium pentobarbital and blood pressure is monitored at the carotid artery. The TXA2 mimetic agent U46619 is administered intravenously at 5 μg/kg via the jugular vein to produce a 20-30 mm Hg (2640-3970 pascal) increase in systolic blood pressure. The procedure is repeated twice to establish reproducibility of the effect. A test compound is then administered either intravenously (via the jugular vein) or orally (via a cannula) directly into the stomach and the animal is challenged with U46619, five minutes after dosing with test compound and then successively every ten minutes until the hypertensive effect of U46619 is no longer blocked.

Experiment [4] relates to U46619 induced bronchoconstriction. The experiment in a line: Test (c): bronchoconstriction test, Konzett-Rossler anaesthetised guinea-pig model. It is filed as in vivo. The settings on record: 2 hours after oral dosing at 0.005 mg/kg; ratio of U46619 concentration required to cause 50% bronchoconstriction in presence and absence of test compound. The text has this:
(c) a bronchoconstriction test involving measuring the inhibition by a test compound of the bronchoconstriction induced in the Konzett-Rossler, anaesthetised guinea-pig model (as modified by Collier and James, Brit. J. Pharmacol., 1967, 30, 283-307) by intravenous administration of the TXA2 mimetic agent, U46619 and involving:
(i) obtaining a cumulative dose-response curve to U46619 induced bronchoconstriction by intravenous administration of constant volumes of increasing concentrations of U46619 (0.2-4 ug/kg) in physiological saline solution and expressing bronchoconstriction as the maximum of that theoretically obtainable with no air flow to the test animal;
(ii) generating a cumulative dose-response curve to U46619 induced bronchoconstriction at 30 minute intervals for 3 hours after oral dosing of test compound; and
(iii) calculating a dose-ratio for the test compound (that is the ratio of concentration of U46619 required to cause 50% bronchoconstriction in the presence and absence of test compound) indicating the potency of TXA2 antagonism.

Experiment [5] concerns TXA2. The experiment in a line: Test (a): rabbit aortal strip model (Piper and Vane). It is filed as cell-based. The settings on record: agonist TXA2 or U46619. How it is done: as §1
(a) The rabbit aortal strip model devised by Piper and Vane (Nature, 1969, 223, 29-35) using as agonist a freshly prepared sample of TXA2, generated by addition of arachidonic acid (25 μg) to citrated, platelet rich rabbit plasma (250 μl) and allowing the mixture to aggregate fully over 90 seconds before use; alternatively the TXA2 mimetic agent known as U46619 (described by R. L. Jones et alia in "Chemistry, Biochemistry and Pharmacological Activity of Prostanoids" edited by S. M. Roberts and F. Scheinmann, at page 211; Pergamon Press, 1979) may be used as the agonist;

Each structure is given as a SMILES string.

As to `COc1ccccc1[C@H]1O[C@@H](C(F)(F)F)OC[C@H]1C/C=C\CCC(=O)O` (relative stereo) [4(Z)-6-([2,4,5-cis]-4-o-methoxyphenyl-2-trifluoromethyl-1,3-dioxan-5-yl)hexenoic acid], the TXA2 antagonist properties entry with TXA2 [1] is “also possess TXA2 antagonist properties”.

For `O=C(O)CCC/C=C\C[C@@H]1CO[C@H](C(F)(F)F)O[C@@H]1c1ccccc1` (relative stereo) [5(Z)-7-([2,4,5-cis]-4-phenyl-2-trifluoromethyl-1,3-dioxan-5-yl)heptenoic acid, reference compound], the TXA2 antagonist properties result in the experiment on TXA2 [1] was “significantly lower TXA2 antagonist properties”.

The pA2 is a measure of antagonist potency on a negative log scale. Low readings indicate a weaker antagonist, high ones a more potent antagonist. In experiment [2], `O=C(O)CC/C=C\C[C@@H]1CO[C@H](C(F)(F)F)O[C@@H]1c1ccccc1O` (relative stereo) [compound of formula I, 4(Z)-6-([2,4,5-cis]-4-o-hydroxyphenyl-2-trifluoromethyl-1,3-dioxan-5-yl)hexenoic acid] came in with a Kb of 13.2 nM. Further, the “inhibition of U46619 induced hypertension” value in experiment [3] is given as over 60%. The TXA2 antagonist properties entry in the experiment on TXA2 [1] is on record as “unexpectedly superior TXA2 antagonist properties”. Further, in experiment [4], the dose ratio was over 40. The compound further showed a pA2 with TXA2 [5] of 7.58±0.05.
